Laboratory results published in PubChem BioAssay AID1625 (Sanford-Burnham Center for Chemical Genomics, 2009).
The source made the active and inactive calls.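 Rule for the calls: active = z-score above 3 at 5 µM with at least 500 cells counted in the well; inconclusive = wells under 500 cells, flagged as cytotoxic or low count; inactive = the rest.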

Test system: MIN6 insulin promoter-GFP reporter, high-content imaging
Assay: up-regulation of insulin promoter-GFP reporter – imaging, high-content screening, mouse beta cells (AID 1625)

For `Cc1cccn2c(=O)c(/C=C3\SC(=S)NC3=O)c(NCCCN3CCOCC3)nc12`, which EC50 is on record?
The EC50 was 12.2 µM (inactive).

For `C=CCSc1nnc(C)c(/C=C/Nc2ccc(Cl)cc2)n1`, which EC50 is on record?
The EC50 was > 16 µM (inactive).

How did the EC50 turn out when `CCOC(=O)c1c(-c2ccc(C)cc2)csc1NC(=O)/C(C#N)=C/c1ccc(O)c(OC)c1` was run?
The EC50 was > 16 µM (inactive).

How did the EC50 turn out when `CCOc1cc([N+](=O)[O-])cc2c1C(=O)Nc1ccccc1O2` was run?
Its EC50 is > 16 µM (inactive).

With `N#C/C(=C\c1ccc(N2CCOCC2)o1)c1ccccc1` as the molecule, how does the EC50 read?
The EC50 was > 16 µM (inactive).

`Cc1cccn2c(=O)c(/C=C3\SC(=S)N(CC(C)C)C3=O)c(NCCCOC(C)C)nc12` was tested. Which EC50 did it give?
Its EC50 is > 16 µM (inactive).

With `CCN1CC=C2C(C#N)=C(N)C(C#N)(C#N)C(c3cc(Cl)ccc3Cl)C2C1` (stereo not given) as the molecule, how does the EC50 read?
The EC50 was 8.66 µM.

`N#C/C(=C\c1ccc(N2CCOCC2)o1)c1nc2ccccc2[nH]1` was tested. Which EC50 did it give?
The EC50 was 3.42 µM.

For `COCCCNc1c2c3c(cccc3[nH]c1=O)C(=O)c1ccccc1-2`, which EC50 is on record?
Its EC50 is 4.03 µM.

Which EC50 does the source give for `CCOC(=O)c1sc2cc([N+](=O)[O-])cc(SCC(C)C)c2c1N` here?
The EC50 was > 16 µM (inactive).

With `COc1ccc(/C=C2\C(=O)NC(=S)N2C(=O)c2ccc(F)cc2)cc1` as the molecule, how does the EC50 read?
Its EC50 is > 16 µM (inactive).

How did the EC50 turn out when `CCN(CC)c1ccc2cc(C(=O)Nc3ccccn3)c(=O)oc2c1` was run?
Its EC50 is > 16 µM (inactive).

For `COC(=O)c1cc(NC(=O)c2ccccc2)c(=O)oc1/C=C/Nc1ccc(Oc2ccccc2)cc1`, which EC50 is on record?
The EC50 was 6.49 µM.

For `CCN(CC)C(=O)c1sc2nc(-c3cccs3)cc(-c3cccs3)c2c1N`, which EC50 is on record?
The EC50 was > 16 µM (inactive).

For `Cc1ccc(/C=[N+](\[O-])c2ccc(N(C)C)cc2)c2nsnc12`, which EC50 is on record?
Its EC50 is > 16 µM (inactive).

For `CC(=O)Nc1ccc(N=Cc2c(O)c(C(=O)Nc3ccccc3)cc3ccccc23)cc1`, which EC50 is on record?
Its EC50 is > 16 µM (inactive).

Which EC50 does the source give for `O=C(O)c1cc(-c2ccc(/C=C3/SC(=S)N(Cc4ccccc4)C3=O)o2)ccc1Cl` here?
Its EC50 is 10.5 µM (inactive).

`N#C/C(=C\c1ccc(N2CCCCC2)o1)C(N)=O` was tested. Which EC50 did it give?
The EC50 was 10.8 µM (inactive).

`C(=C/c1nccc2c1[nH]c1ccccc12)/c1ccc2c(c1)OCO2` was tested. Which EC50 did it give?
Its EC50 is 11.9 µM (inactive).

For `C/C(=N\Nc1ccc([N+](=O)[O-])cc1)c1cc2ccccc2o1`, which EC50 is on record?
Its EC50 is > 16 µM (inactive).

`CCN1/C(=C/C=C/c2oc3ccc4ccccc4c3[n+]2CC)Oc2ccc3ccccc3c21` was tested. Which EC50 did it give?
The EC50 was less than 0.25 µM.

For `O=C(/C=C/c1ccc(N2CCC(c3ccccc3)=N2)cc1)c1ccccc1`, which EC50 is on record?
Its EC50 is 2.6 µM.

How did the EC50 turn out when `CN1CC=C2C(C#N)=C(N)C(C#N)(C#N)C(Cc3ccccc3)C2C1` (stereo not given) was run?
Its EC50 is 11.7 µM (inactive).

Which EC50 does the source give for `Cn1c(=O)c(NC2CCCCC2)c2c3c(cccc31)C(=O)c1ccccc1-2` here?
Its EC50 is 2.67 µM.

For `CCCN1C=CC(=CC=C(C#N)C#N)C=C1`, which EC50 is on record?
The EC50 was 10.4 µM (inactive).

How did the EC50 turn out when `CC(C)N1CCc2c(sc(NC(=O)c3ccc(S(=O)(=O)N4CCc5ccccc54)cc3)c2C(N)=O)C1` was run?
The EC50 was > 16 µM (inactive).

With `Cc1oc(C)c2c(=O)ccc3c(c12)OC(N)=C(C#N)C3c1ccc(F)cc1` (stereo not given) as the molecule, how does the EC50 read?
The EC50 was > 16 µM (inactive).

Which EC50 does the source give for `C=CCN1C(=O)/C(=C/c2ccc(N3CCOCC3)o2)C(=O)NC1=S` here?
Its EC50 is > 16 µM (inactive).

`CCN1CCN(C2=CC3=CC(=C(C#N)C#N)CCC3CC2)CC1` (stereo not given) was tested. Which EC50 did it give?
The EC50 was 2.79 µM.

Which EC50 does the source give for `Cc1c(-c2ccc(O)cc2)nc2nc(-c3ccccc3)c(-c3ccccc3)nn12` here?
The EC50 was 5.31 µM.

How did the EC50 turn out when `COc1ccc2c(C)cc(SCC(=O)N(C)C3CCS(=O)(=O)C3)nc2c1` (stereo not given) was run?
Its EC50 is > 16 µM (inactive).

With `CCCN1CCc2c(sc(NC(=S)NC(=O)c3ccccc3)c2C#N)C1` as the molecule, how does the EC50 read?
The EC50 was 7.92 µM.

For `O=[N+]([O-])c1ccc(-c2ccc(/C=N/Nc3nc(N4CCCCC4)nc(N4CCCCC4)n3)o2)cc1`, which EC50 is on record?
The EC50 was > 16 µM (inactive).

For `Nc1c(C(=O)Nc2nccs2)sc2nc(-c3cccs3)cc(C(F)(F)F)c12`, which EC50 is on record?
Its EC50 is 5.91 µM.

With `COc1ccc2c(n1)Sc1nc3ccccc3nc1N2` as the molecule, how does the EC50 read?
Its EC50 is > 16 µM (inactive).

`CCOC(=O)N1CCN(S(=O)(=O)c2ccc3c(c2)oc(=O)n3C)CC1` was tested. Which EC50 did it give?
The EC50 was > 16 µM (inactive).

How did the EC50 turn out when `CN1/C(=C/C=C(C#N)C#N)C=Cc2ccccc21` was run?
The EC50 was > 16 µM (inactive).

With `CC(=O)c1sc2nc(-c3cccs3)cc(C(F)(F)F)c2c1N` as the molecule, how does the EC50 read?
The EC50 was 7.56 µM.

Which EC50 does the source give for `CCN(CC)c1ccc(C=C(c2nnnn2-c2ccccc2)c2nnnn2-c2ccccc2)cc1` here?
Its EC50 is > 16 µM (inactive).

`O=C(C1=C(O)C(=O)N(c2nccs2)C1c1ccccc1)c1cc2ccccc2o1` (stereo not given) was tested. Which EC50 did it give?
The EC50 was 13.3 µM (inactive).

Which EC50 does the source give for `CCN(CC)c1ccc(/C=C(/C#N)c2nc3ccc(C)cc3[nH]2)c(OC(C)C)c1` here?
The EC50 was 2.87 µM.

For `CCCSc1nc2sc3c(c2c(=O)[nH]1)CCN(Cc1ccccc1)C3`, which EC50 is on record?
The EC50 was > 16 µM (inactive).

For `CCN1/C(=C/c2ccc3cc(C)ccc3[n+]2CC)Sc2ccccc21`, which EC50 is on record?
Its EC50 is 1.1 µM.

For `CN(C)c1ccc(/C=C2\CCC/C(=C\c3ccccc3)C2=O)cc1`, which EC50 is on record?
The EC50 was > 16 µM (inactive).

`CCOC(=O)CC1C(=O)NCCN1c1nc2ccc(C)cn2c(=O)c1/C=C1\SC(=S)N(C(C)CC)C1=O` (stereo not given) was tested. Which EC50 did it give?
The EC50 was 0.748 µM.

With `Cc1oc(C)c2c(=O)ccc3c(c12)OC(N)=C(C#N)C3c1ccccc1` (stereo not given) as the molecule, how does the EC50 read?
Its EC50 is > 16 µM (inactive).

`O=C(OCCN1C(=O)c2cccc3c(N4CCOCC4)ccc(c23)C1=O)c1ccc(Cl)cc1Cl` was tested. Which EC50 did it give?
Its EC50 is 12.1 µM (inactive).

For `O=[N+]([O-])c1ccc(C2=NN(c3ccccc3)C(c3ccco3)C2)cc1` (stereo not given), which EC50 is on record?
The EC50 was 9.19 µM.

With `Nc1c(C(=O)N/N=C/c2cccnc2)oc2nc(-c3ccco3)cc(-c3ccco3)c12` as the molecule, how does the EC50 read?
Its EC50 is > 16 µM (inactive).

With `CC(C)N1CC=C2C(C#N)=C(N)C(C#N)(C#N)[C@H](c3ccoc3)[C@H]2C1` as the molecule, how does the EC50 read?
Its EC50 is 8.51 µM.

For `Cc1ccc(N2C(=O)c3cccc4c(N5CCN(C)CC5)ccc(c34)C2=O)c2cccnc12`, which EC50 is on record?
Its EC50 is 10.3 µM (inactive).

How did the EC50 turn out when `O=C1c2cccc3c(N4CCCCC4)ccc(c23)C(=O)N1c1ccccc1O` was run?
Its EC50 is > 16 µM (inactive).

`Cc1[nH]c2ccccc2c1/C=N/Nc1ccc([N+](=O)[O-])cc1` was tested. Which EC50 did it give?
The EC50 was 9.3 µM.

`COc1ccc(/C=C2\CC/C(=C\c3ccc(OC)cc3OC)C2=O)c(OC)c1` was tested. Which EC50 did it give?
The EC50 was > 16 µM (inactive).

For `CC(C)(C)NC(=S)N/N=C\c1ccc(-c2ccc([N+](=O)[O-])cc2)o1`, which EC50 is on record?
Its EC50 is 14.3 µM (inactive).

For `CN1/C(=C\C=C2/C(=O)Oc3ccccc3C2=O)C(C)(C)c2ccccc21`, which EC50 is on record?
Its EC50 is 2.58 µM.

With `Cc1oc(C)c2c(=O)ccc3c(c12)OC(N)=C(C#N)C3c1ccccc1Cl` (stereo not given) as the molecule, how does the EC50 read?
Its EC50 is 11.4 µM (inactive).

`N#C/C(=C/c1ccc(N2CCCCC2)o1)C(=O)NCCc1c[nH]c2ccccc12` was tested. Which EC50 did it give?
Its EC50 is 5.17 µM.

How did the EC50 turn out when `N#C/C(=C/c1ccc(N2CCOCC2)o1)c1ccc(Cl)cc1` was run?
Its EC50 is 9.12 µM.

Which EC50 does the source give for `CN(C)c1ccc(/C=C/C(=O)c2c(O)c3ccccc3oc2=O)cc1` here?
The EC50 was 0.726 µM.

Which EC50 does the source give for `N#C/C(=C/c1ccc(N2CCOCC2)o1)c1ccc(Br)cc1` here?
The EC50 was 12.8 µM (inactive).

`CCOc1cc(N(CC)CC)ccc1/C=C(/C#N)c1nc2ccccc2[nH]1` was tested. Which EC50 did it give?
The EC50 was 4.49 µM.

`COc1cc([C@@H]2[C@H]3CNCC=C3C(C#N)=C(N)C2(C#N)C#N)ccc1OC(C)C` was tested. Which EC50 did it give?
Its EC50 is > 16 µM (inactive).

Which EC50 does the source give for `CC(C)N1CCc2c(sc(NC(=O)c3cc4cc([N+](=O)[O-])ccc4s3)c2C(N)=O)C1` here?
Its EC50 is > 16 µM (inactive).

`CCCCN1C(=O)/C(=C/C=C2\Oc3ccccc3N2CC)SC1=S` was tested. Which EC50 did it give?
Its EC50 is 0.958 µM.

How did the EC50 turn out when `CN1CCN(c2ccc(/C=C3\C(=O)NC(=S)N(c4cccc(Br)c4)C3=O)o2)CC1` was run?
The EC50 was > 16 µM (inactive).

Which EC50 does the source give for `CCCCN1C(=O)C2(NNc3ccccc3O2)c2ccccc21` (stereo not given) here?
Its EC50 is > 16 µM (inactive).

How did the EC50 turn out when `O=C1c2cccc3c(O)ccc(c23)C(=O)N1Cc1ccccc1` was run?
Its EC50 is 5.65 µM.

`Cc1ccc(Nc2nc(Cl)c(C=O)s2)cc1Cl` was tested. Which EC50 did it give?
The EC50 was > 16 µM (inactive).

`Nc1c(C(=O)Nc2nc3ccccc3s2)sc2nc(-c3cccs3)ccc12` was tested. Which EC50 did it give?
The EC50 was 12.8 µM (inactive).
